Test results published in ChEMBL document CHEMBL1201862, “PubChem BioAssay data set” (2004).
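Cultured in 96-well plates, cells were exposed to test compound for 48 hours across five concentrations. GI50 = concentration required for 50% inhibition of growth.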 Activity calls are given as the source filed them. Rule as the data show it: active = GI50 up to about 1.1 µM and inactive = higher.

Legend:
Test in all cases: NCI anticancer screen, dose series, 48 h
NCI/ADR-RES = test system: NCI/ADR-RES
SR = test system: SR
OVCAR-5 = test system: OVCAR-5
A498 = test system: A498
786-0 = test system: 786-0
TK-10 = test system: TK-10
HCT-116 = test system: HCT-116
HOP-92 = test system: HOP-92
BT-549 = test system: BT-549
RPMI-8226 = test system: RPMI-8226
UO-31 = test system: UO-31
M14 = test system: M14
RXF 393 = test system: RXF 393
SW-620 = test system: SW-620
KM12 = test system: KM12
OVCAR-3 = test system: OVCAR-3
NCI-H460 = test system: NCI-H460

Measured: GI50

C[N+]1(CCCC[N+]2(C)CCCCCCC2)CCCCCCC1
inactive: NCI/ADR-RES > 100 µM | SR > 100 µM | OVCAR-5 > 100 µM | A498 > 100 µM | 786-0 > 100 µM | TK-10 > 100 µM | HCT-116 > 100 µM | HOP-92 77.1 µM | BT-549 > 100 µM | RPMI-8226 > 100 µM | UO-31 > 100 µM | M14 > 100 µM | RXF 393 > 100 µM | SW-620 > 100 µM | KM12 > 100 µM | OVCAR-3 > 100 µM | NCI-H460 > 100 µM

O=C1C(Cl)C(c2cc3cc(Br)ccc3nc2Cl)N1c1c(Cl)cccc1Cl (stereo not given)
inactive: NCI/ADR-RES 12.3 µM | SR 4.78 µM | OVCAR-5 > 25 µM | A498 > 25 µM | 786-0 12.4 µM | TK-10 > 25 µM | HCT-116 9.12 µM | HOP-92 9.79 µM | BT-549 10.2 µM | RPMI-8226 6.78 µM | UO-31 1.3 µM | M14 22.1 µM | RXF 393 9.91 µM | SW-620 11.6 µM | KM12 > 25 µM | OVCAR-3 18.2 µM | NCI-H460 > 25 µM

Nc1nc(Cl)c2ncn(Cc3ccc(CCl)cc3)c2n1
inactive: NCI/ADR-RES 3.33 µM | SR 3.02 µM | OVCAR-5 3.29 µM | A498 22 µM | 786-0 5.31 µM | TK-10 16.6 µM | HCT-116 2.76 µM | HOP-92 1.64 µM | BT-549 6.84 µM | RPMI-8226 3.83 µM | UO-31 11.9 µM | M14 14 µM | RXF 393 1.3 µM | SW-620 3.37 µM | KM12 8.07 µM | OVCAR-3 2.16 µM | NCI-H460 4.25 µM

Cn1c(=O)sc2cc(C(=S)N3CCOCC3)ccc21
inactive: NCI/ADR-RES > 73.1 µM | SR 69.7 µM | OVCAR-5 > 100 µM | A498 > 100 µM | 786-0 > 100 µM | TK-10 > 100 µM | HCT-116 > 100 µM | HOP-92 9.89 µM | BT-549 > 100 µM | RPMI-8226 > 79.8 µM | UO-31 60 µM | M14 > 100 µM | RXF 393 > 100 µM | SW-620 > 100 µM | KM12 > 100 µM | OVCAR-3 > 100 µM | NCI-H460 > 100 µM

COc1cc(/C=C2/SC(c3ccccc3)N(c3cccc(Cl)c3)C2=O)cc(OC)c1OC (stereo not given)
inactive: NCI/ADR-RES 17.1 µM | SR 10.8 µM | OVCAR-5 29.9 µM | A498 81.7 µM | 786-0 16.8 µM | TK-10 33.7 µM | HCT-116 15.3 µM | HOP-92 23.6 µM | BT-549 24.1 µM | RPMI-8226 16.2 µM | UO-31 24.8 µM | M14 19.8 µM | RXF 393 15.9 µM | SW-620 28.6 µM | KM12 32.4 µM | OVCAR-3 40.1 µM | NCI-H460 32.1 µM
